# Source: the supplement of paper PMC10307832
# Compound: CC(C)C[C@H](NC(=O)[C@H](CCc1ccccc1)NC(=O)CN1CCOCC1)C(=O)N[C@@H](Cc1ccccc1)C(=O)N[C@@H](CC(C)C)C(=O)[C@@]1(C)CO1 [Carfilzomib] + Cc1cc(Nc2cc(N3CCN(C)CC3)nc(Sc3ccc(NC(=O)C4CC4)cc3)n2)n[nH]1 [Tozasertib] (partner 0.1 µM)
# Assay: relative viability (nuclei count vs DMSO), 5 days (fraction); higher = more cells survive
# Conditions: first compound 0.001 µM
# Method in brief: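 Relative viability divides the nuclei count in treated wells by that in vehicle wells. Lung cancer cell lines were seeded in 1536-well plates, dosed by pin tool the next day, and fixed and stained after 5 days in one step with final 0.05% Triton X-100, 1% formaldehyde and 1 ug/ml Hoechst. Dosing was a single drug or a fixed anchor-drug dose plus five library-drug doses (not always all listed) in √10 steps, and values are medians of duplicate plates imaged at 4×.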
row,Cell Line,relative viability
1,NCI-H647,0.452
2,NCI-H661,0.367
3,NCI-H727,0.708
4,NCI-H838,0.273
5,NCI-H1355,0.537
6,NCI-H1395,0.746
7,NCI-H1437,0.403
8,NCI-H1650,0.42
9,NCI-H1651,0.626
10,NCI-H1666,0.667
11,NCI-H1734,0.275
12,NCI-H1755,0.612
13,NCI-H1915,0.422
14,NCI-H1944,0.248
15,NCI-H1993,0.563
16,NCI-H2009,0.781
17,NCI-H2023,0.433
18,NCI-H2085,0.825
19,NCI-H2087,0.264
20,NCI-H2126,0.904
21,NCI-H2170,0.751
22,NCI-H2228,0.3
23,NCI-H2347,0.54

# Same assay, conditions: first compound 0.003162 µM
row,Cell Line,relative viability
1,NCI-H23,0.428
2,NCI-H322M,0.52
3,NCI-H358,0.0949
4,NCI-H441,0.626
5,NCI-H460,0.51
6,NCI-H520,0.492
7,NCI-H596,0.878
8,NCI-H647,0.378
9,NCI-H650,0.9
10,NCI-H661,0.313
11,NCI-H727,0.754
12,NCI-H838,0.276
13,NCI-H1355,0.647
14,NCI-H1395,0.743
15,NCI-H1437,0.424
16,NCI-H1650,0.392

row,Cell Line,relative viability
1,NCI-H1651,0.805
2,NCI-H1666,0.551
3,NCI-H1734,0.289
4,NCI-H1755,0.505
5,NCI-H1915,0.458
6,NCI-H1944,0.236
7,NCI-H1975,0.766
8,NCI-H1993,0.571
9,NCI-H2009,0.871
10,NCI-H2023,0.399
11,NCI-H2085,0.828
12,NCI-H2087,0.236
13,NCI-H2126,0.926
14,NCI-H2170,0.73
15,NCI-H2228,0.27
16,NCI-H2405,0.814

# Same assay, conditions: first compound 0.01 µM
row,Cell Line,relative viability
1,NCI-H23,0.376
2,NCI-H322M,0.556
3,NCI-H358,0.127
4,NCI-H441,0.49
5,NCI-H460,0.48
6,NCI-H520,0.371
7,NCI-H596,0.721
8,NCI-H647,0.171
9,NCI-H650,0.745
10,NCI-H661,0.364
11,NCI-H727,0.602
12,NCI-H838,0.298
13,NCI-H1355,0.569
14,NCI-H1395,0.696
15,NCI-H1437,0.4
16,NCI-H1650,0.255
17,NCI-H1651,0.559

row,Cell Line,relative viability
1,NCI-H1666,0.58
2,NCI-H1734,0.266
3,NCI-H1755,0.571
4,NCI-H1915,0.465
5,NCI-H1944,0.253
6,NCI-H1975,0.371
7,NCI-H1993,0.59
8,NCI-H2009,0.723
9,NCI-H2023,0.352
10,NCI-H2085,0.786
11,NCI-H2087,0.239
12,NCI-H2126,0.936
13,NCI-H2170,0.749
14,NCI-H2228,0.289
15,NCI-H2347,0.619
16,NCI-H2405,0.828

# Same assay, conditions: first compound 0.03162 µM
row,Cell Line,relative viability
1,NCI-H23,0.122
2,NCI-H322M,0.433
3,NCI-H358,0.057
4,NCI-H441,0.193
5,NCI-H460,0.512
6,NCI-H520,0.227
7,NCI-H596,0.222
8,NCI-H647,0.141
9,NCI-H650,0.588
10,NCI-H661,0.373
11,NCI-H727,0.438
12,NCI-H838,0.31
13,NCI-H1355,0.371
14,NCI-H1395,0.505
15,NCI-H1437,0.433
16,NCI-H1650,0.139
17,NCI-H1651,0.126

row,Cell Line,relative viability
1,NCI-H1666,0.523
2,NCI-H1734,0.153
3,NCI-H1755,0.609
4,NCI-H1915,0.229
5,NCI-H1944,0.265
6,NCI-H1975,0.0617
7,NCI-H1993,0.597
8,NCI-H2009,0.748
9,NCI-H2023,0.285
10,NCI-H2085,0.269
11,NCI-H2087,0.0397
12,NCI-H2126,0.777
13,NCI-H2170,0.659
14,NCI-H2228,0.096
15,NCI-H2347,0.493
16,NCI-H2405,0.757

# Same assay, conditions: first compound 0.1 µM
row,Cell Line,relative viability
1,NCI-H23,0.13
2,NCI-H322M,0.337
3,NCI-H358,0.0759
4,NCI-H441,0.247
5,NCI-H460,0.0337
6,NCI-H520,0.259
7,NCI-H596,0.168
8,NCI-H647,0.0292
9,NCI-H650,0.157
10,NCI-H661,0.255
11,NCI-H727,0.378
12,NCI-H838,0.116
13,NCI-H1355,0.192
14,NCI-H1395,0.304
15,NCI-H1437,0.252
16,NCI-H1650,0.204
17,NCI-H1651,0.0943

row,Cell Line,relative viability
1,NCI-H1666,0.312
2,NCI-H1734,0.0994
3,NCI-H1755,0.269
4,NCI-H1915,0.0764
5,NCI-H1944,0.16
6,NCI-H1975,0.0846
7,NCI-H1993,0.423
8,NCI-H2009,0.0938
9,NCI-H2023,0.0853
10,NCI-H2085,0.385
11,NCI-H2087,0.0474
12,NCI-H2126,0.408
13,NCI-H2170,0.173
14,NCI-H2228,0.103
15,NCI-H2347,0.151
16,NCI-H2405,0.267
